# Data reported in patent US20260077069A1, “COMBINATIONS OF CONTRAST AGENTS” (BAYER AKTIENGESELLSCHAFT, priority 2022, published 2026).
# Experiments:
# [1] = Relaxivity measurements at 1.41 T in water and human plasma; assay type: physicochemical; conditions: 37° C., normalized to Gd
# Method: Relaxivity measurements at 1.41 T were performed using a MiniSpec mq60 spectrometer (Bruker Analytik, Karlsruhe, Germany) operating at a resonance frequency of 60 MHz and a temperature of 37° C. The T1 relaxation times were determined using the standard inversion recovery (IR) method with a fixed relaxation delay of at least 5×T1. The variable inversion time (TI) was calculated automatically by the standard software of the MiniSpec mq60 (8 steps). The T2 measurements were performed by using a Carr-Purcell-Meiboom-Gill (CPMG) pulse sequence, applying a relaxation delay of at least 5×T1.
# Each relaxivity measurement was performed using three different Gd concentrations (3 concentrations between 0.05 and 2 mM). The T1 and T2 relaxation times of the example compounds were measured in water and human plasma. Human plasma preparation: For each experiment fresh blood was taken from a volunteer using 10 mL citrate-tubes (Sarstedt S-Monovette 02.1067.001, 10 mL, Citrate). The 10 mL citrate-tubes were carefully inverted 10 times to mix blood and anticoagulant and centrifuged for 15 min at 1811 g at RT (Eppendorf, Centrifuge 5810R).
# The relaxivities ri (where i=1, 2) were calculated based on the measured relaxation rates Ri in water and plasma:
# where Ri(0) represent the relaxation rate of the respective solvent and CGd the concentration of the compound normalized to the Gadolinium. The Gadolinium concentrations of the investigated solutions were verified by Inductively Coupled Plasma Mass Spectrometry (ICP-MS Agilent 7500a, Waldbronn, Germany).
# [2] = system: freshly isolated rat hepatocytes; test: Uptake into freshly isolated rat hepatocytes; assay type: cell-based; conditions: uptake with OATP1B1/1B3 inhibitor Rifampicine 1:1, each 100 uM
# Method: Freshly isolated rat hepatocytes were received as described before (Papeleu P. et al. (2006) Isolation of Rat Hepatocytes. In: Phillips I. R., Shephard E. A. (eds) Cytochrome P450 Protocols. Methods in Molecular Biology, vol 320. Humana Press, Totowa, NJ. https://doi.org/10.1385/1-59259-998-2:229). The rat hepatocytes were incubated (2.5·10^5 cells/well) for 2.5 to 4 h in collagen coated 24-well plates (Fa. Beckton Dickinson Biocoat, cell environments, Collagen I Cellware) in Williams E-medium (Fa. Sigma W1878) in an incubator (37° C., 5% CO2 and […]). After incubation the adherent hepatocytes were washed once with 37° C. Hepes carbonate transport buffer (500 μL/well). The test items and RC3 were prepared from stock solutions (180 to 500 mM concentration) in Hepes carbonate transport buffer at pH 7.4 to reach a final concentration of 100 μmol Gd/L. The specific uptake of the test item or RC3 into rat hepatocytes via OATP1B1 and OATP1B3 was challenged using a known OATP1B1/1B3 inhibitor (Rifampicine, Fa. Sigma R3501, test item and inhibitor 1:1 each 100 µM final concentration). The prepared rat hepatocyte plates were incubated with test solutions (500 μL/well) at 37° C. for 10 min using a thermoshaker (Fa. Grant Bio, PHMP). Triplicates were performed for each test item. After incubating the cells were washed once with cold PBS buffer (Fa. Gibco, Dulbeccos PBS (+)). After washing the intact hepatocytes were lysed by addition of 500 μL cold 0.01% Triton-X 100 in Millipore water for 1 h. The strongly hypo-osmolar water led to cell membrane rupture and the release of the intracellular Gd-compound. After 1 h 500 μL of 10 nM Terbium ICP-MS standard was added in 2% nitric acid and 0.01% Triton 100 before the Gadolinium concentrations in the lysate were measured using ICP-MS (Agilent 8900, singleQuad, integr. Time 0.3 s, no gas, 5 replicates, Gd m/z 157, Tb m/z 159). As a reference standard RC3 is used in the same well plate. The hepatocyte uptake of the test compound is calculated relative to RC3 (resulting in the unit % of RC3).
compound,measurement,setting,value
CC(C(=O)NCC(=O)NCC(CNC(=O)CNC(=O)C(C)N1CCN(CC(=O)[O-])CCN(CC(=O)[O-])CCN(CC(=O)[O-])CC1)C(=O)NCCN(CCNC(=O)C(CNC(=O)CNC(=O)C(C)N1CCN(CC(=O)[O-])CCN(CC(=O)[O-])CCN(CC(=O)[O-])CC1)CNC(=O)CNC(=O)C(C)N1CCN(CC(=O)[O-])CCN(CC(=O)[O-])CCN(CC(=O)[O-])CC1)C(=O)CNC(=O)C(C)N1CCN(CC(=O)[O-])CCN(CC(=O)[O-])CCN(CC(=O)[O-])CC1)N1CCN(CC(=O)[O-])CCN(CC(=O)[O-])CCN(CC(=O)[O-])CC1.[Gd+3].[Gd+3].[Gd+3].[Gd+3].[Gd+3] (stereo not shown) [Compound 1],r1 human plasma,[1],13.0 L/mmol/s
same,r1 water,[1],11.1 L/mmol/s
CC(C(=O)NCC(=O)NCC(CNC(=O)CNC(=O)C(C)N1CCN(CC(=O)[O-])CCN(CC(=O)[O-])CCN(CC(=O)[O-])CC1)C(=O)NCCN(CCNC(=O)C(CNC(=O)CNC(=O)C(C)N1CCN(CC(=O)[O-])CCN(CC(=O)[O-])CCN(CC(=O)[O-])CC1)CNC(=O)CNC(=O)C(C)N1CCN(CC(=O)[O-])CCN(CC(=O)[O-])CCN(CC(=O)[O-])CC1)C(=O)C(CNC(=O)CNC(=O)C(C)N1CCN(CC(=O)[O-])CCN(CC(=O)[O-])CCN(CC(=O)[O-])CC1)CNC(=O)CNC(=O)C(C)N1CCN(CC(=O)[O-])CCN(CC(=O)[O-])CCN(CC(=O)[O-])CC1)N1CCN(CC(=O)[O-])CCN(CC(=O)[O-])CCN(CC(=O)[O-])CC1.[Gd+3].[Gd+3].[Gd+3].[Gd+3].[Gd+3].[Gd+3] (stereo not shown) [Compound 2],r1 human plasma,[1],13.9 L/mmol/s
same,r1 water,[1],12.1 L/mmol/s
C[C@H](C(=O)NCC(=O)N1CCN(C(=O)CNC(=O)[C@@H](C)N2CCN(CC(=O)[O-])CCN(CC(=O)[O-])CCN(CC(=O)[O-])CC2)CC(C(=O)NCCN(CCNC(=O)C2CN(C(=O)CNC(=O)[C@@H](C)N3CCN(CC(=O)[O-])CCN(CC(=O)[O-])CCN(CC(=O)[O-])CC3)CCN(C(=O)CNC(=O)[C@@H](C)N3CCN(CC(=O)[O-])CCN(CC(=O)[O-])CCN(CC(=O)[O-])CC3)C2)C(=O)C2CN(C(=O)CNC(=O)[C@@H](C)N3CCN(CC(=O)[O-])CCN(CC(=O)[O-])CCN(CC(=O)[O-])CC3)CCN(C(=O)CNC(=O)[C@@H](C)N3CCN(CC(=O)[O-])CCN(CC(=O)[O-])CCN(CC(=O)[O-])CC3)C2)C1)N1CCN(CC(=O)[O-])CCN(CC(=O)[O-])CCN(CC(=O)[O-])CC1.[Gd+3].[Gd+3].[Gd+3].[Gd+3].[Gd+3].[Gd+3] [Compound 5],r1 human plasma,[1],14.3 L/mmol/s
same,r1 water,[1],13.0 L/mmol/s
CC(C(=O)NCC(=O)N1CCN(C(=O)CNC(=O)C(C)N2CCN(CC(=O)[O-])CCN(CC(=O)[O-])CCN(CC(=O)[O-])CC2)CCN(C(=O)CNC(=O)C(C)N2CCN(CC(=O)[O-])CCN(CC(=O)[O-])CCN(CC(=O)[O-])CC2)CCN(C(=O)CNC(=O)C(C)N2CCN(CC(=O)[O-])CCN(CC(=O)[O-])CCN(CC(=O)[O-])CC2)CC1)N1CCN(CC(=O)[O-])CCN(CC(=O)[O-])CCN(CC(=O)[O-])CC1.[Gd+3].[Gd+3].[Gd+3].[Gd+3] (stereo not shown) [Compound 7],r1 human plasma,[1],12.1 L/mmol/s
same,r1 water,[1],10.8 L/mmol/s
CC(C(=O)NCC(=O)NCC(NC(=O)CNC(=O)C(C)N1CCN(CC(=O)[O-])CCN(CC(=O)[O-])CCN(CC(=O)[O-])CC1)C(=O)N1CC23CN(C(=O)C(CNC(=O)CNC(=O)C(C)N4CCN(CC(=O)[O-])CCN(CC(=O)[O-])CCN(CC(=O)[O-])CC4)NC(=O)CNC(=O)C(C)N4CCN(CC(=O)[O-])CCN(CC(=O)[O-])CCN(CC(=O)[O-])CC4)CC2(C1)CN(C(=O)C(CNC(=O)CNC(=O)C(C)N1CCN(CC(=O)[O-])CCN(CC(=O)[O-])CCN(CC(=O)[O-])CC1)NC(=O)CNC(=O)C(C)N1CCN(CC(=O)[O-])CCN(CC(=O)[O-])CCN(CC(=O)[O-])CC1)C3)N1CCN(CC(=O)[O-])CCN(CC(=O)[O-])CCN(CC(=O)[O-])CC1.[Gd+3].[Gd+3].[Gd+3].[Gd+3].[Gd+3].[Gd+3] (stereo not shown) [Compound 8],r1 human plasma,[1],14.6 L/mmol/s
same,r1 water,[1],12.5 L/mmol/s
O=C([O-])CN1CCN(CC(=O)[O-])CCN(CC(=O)N2CCN(C(=O)CN3CCN(CC(=O)[O-])CCN(CC(=O)[O-])CCN(CC(=O)[O-])CC3)CC(C(=O)N3CC4CN(C(=O)C5CN(C(=O)CN6CCN(CC(=O)[O-])CCN(CC(=O)[O-])CCN(CC(=O)[O-])CC6)CCN(C(=O)CN6CCN(CC(=O)[O-])CCN(CC(=O)[O-])CCN(CC(=O)[O-])CC6)C5)CC(C3)N4)C2)CCN(CC(=O)[O-])CC1.[Gd+3].[Gd+3].[Gd+3].[Gd+3] [Compound 9],r1 water,[1],7.4 L/mmol/s
O=C([O-])CN1CCN(CC(=O)[O-])CCN(CC(=O)NCC(CNC(=O)CN2CCN(CC(=O)[O-])CCN(CC(=O)[O-])CCN(CC(=O)[O-])CC2)(CNC(=O)CN2CCN(CC(=O)[O-])CCN(CC(=O)[O-])CCN(CC(=O)[O-])CC2)CNC(=O)CN2CCN(CC(=O)[O-])CCN(CC(=O)[O-])CCN(CC(=O)[O-])CC2)CCN(CC(=O)[O-])CC1.[Gd+3].[Gd+3].[Gd+3].[Gd+3] [Compound 10],r1 human plasma,[1],9.7 L/mmol/s
same,r1 water,[1],7.3 L/mmol/s
CCOCCOc1ccc(CC(C(=O)[O-])N2CCN(CC(=O)[O-])CCN(C(CC)C(=O)O)CCN(CC(=O)[O-])CC2)cc1.[Gd+3] (stereo not shown) [Compound 13],r1 human plasma,[1],7.4 L/mmol/s
same,r1 water,[1],4.5 L/mmol/s
same,Inhibition Rifampicine,[2],99 % inhibition
CCCCOc1ccc(CC(C(=O)[O-])N2CCN(CC(=O)[O-])CCN(CC(=O)[O-])CCN(CC(=O)O)CC2)cc1.[Gd+3] (stereo not shown) [Compound 14],r1 human plasma,[1],13.3 L/mmol/s
same,r1 water,[1],4.3 L/mmol/s
same,Inhibition Rifampicine,[2],98 % inhibition
CCOCCOCCOc1ccc(CCC[C@@H](C(=O)O)N2CCN([C@@H](CO)C(=O)[O-])CCN([C@@H](CO)C(=O)[O-])CCN([C@@H](CO)C(=O)[O-])CC2)cc1.[Gd+3] [Compound 15],r1 human plasma,[1],8.7 L/mmol/s
same,r1 water,[1],5.1 L/mmol/s
same,Inhibition Rifampicine,[2],94 % inhibition
CCOCCOCCOc1ccc(CCC[C@H](C(=O)O)N2CCN([C@H](CO)C(=O)[O-])CCN([C@H](CO)C(=O)[O-])CCN([C@H](CO)C(=O)[O-])CC2)cc1.[Gd+3] [Compound 16],r1 human plasma,[1],9.0 L/mmol/s
same,r1 water,[1],5.3 L/mmol/s
same,Inhibition Rifampicine,[2],92 % inhibition
CCCC(C(=O)[O-])N1CCN(CC(=O)[O-])CCN(C(Cc2ccc(OCC)cc2)C(=O)O)CCN(CC(=O)[O-])CC1.[Gd+3] (stereo not shown) [Compound 17],r1 human plasma,[1],7.5 L/mmol/s
same,r1 water,[1],4.4 L/mmol/s
same,Inhibition Rifampicine,[2],99 % inhibition
CCCCOc1ccc(CCCC(C(=O)O)N2CCN(CC(=O)O)CCN(CC(=O)O)CCN(CC(=O)O)CC2)cc1 (stereo not shown) [Compound 18],r1 human plasma,[1],15.8 L/mmol/s
same,r1 water,[1],4.4 L/mmol/s
same,Inhibition Rifampicine,[2],94 % inhibition
CCCCOc1cccc(CCC[C@@H](C(=O)O)N2CCN([C@@H](CO)C(=O)[O-])CCN([C@@H](CO)C(=O)[O-])CCN([C@@H](CO)C(=O)[O-])CC2)c1.[Gd+3] [Compound 19],r1 human plasma,[1],18.0 L/mmol/s
same,r1 water,[1],4.9 L/mmol/s
same,Inhibition Rifampicine,[2],90 % inhibition
CCOCCOCCOc1ccc(CC(C(=O)[O-])N2CCN(CC(=O)[O-])CCN(C(CC)C(=O)[O-])CCN(CC(=O)O)CC2)cc1.[Gd+3] (stereo not shown) [Compound 20],r1 human plasma,[1],6.9 L/mmol/s
same,r1 water,[1],4.8 L/mmol/s
same,Inhibition Rifampicine,[2],97 % inhibition
O=C([O-])CN1CCN(CC(=O)[O-])CCN(C(Cc2ccc(OCC(F)(F)C(F)F)cc2)C(=O)[O-])CCN(CC(=O)O)CC1.[Gd+3] (stereo not shown) [Compound 21],r1 human plasma,[1],10.8 L/mmol/s
same,r1 water,[1],3.5 L/mmol/s
same,Inhibition Rifampicine,[2],90 % inhibition
